Experiments:
Plasmepsin II = Plasmepsin II (Plasmodium falciparum, UniProt P46925); test: Inhibition of Plasmodium falciparum plasmepsin 2 preincubated for 30 mins followed by DABCYL-Glu-Arg-Nle-Phe-Leu-Ser-Phe-Pro-EDANS substrate addition by FRET assay
[1] = Inhibition of Plasmodium falciparum plasmepsin 4 preincubated for 30 mins followed by DABCYL-Glu-Arg-Nle-Phe-Leu-Ser-Phe-Pro-EDANS substrate addition by FRET assay
Cathepsin D = Cathepsin D (Homo sapiens, UniProt P07339); test: Inhibition of CatD (unknown origin) preincubated for 30 mins followed by DABCYL-Glu-Arg-Nle-Phe-Leu-Ser-Phe-Pro-EDANS substrate addition by FRET assay
Sequence of Cathepsin D (P07339 65-162 limits assumed): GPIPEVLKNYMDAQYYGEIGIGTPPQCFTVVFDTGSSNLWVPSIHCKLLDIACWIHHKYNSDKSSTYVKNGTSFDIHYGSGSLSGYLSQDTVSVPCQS
Sequence of Cathepsin D (P07339 169-412 limits assumed): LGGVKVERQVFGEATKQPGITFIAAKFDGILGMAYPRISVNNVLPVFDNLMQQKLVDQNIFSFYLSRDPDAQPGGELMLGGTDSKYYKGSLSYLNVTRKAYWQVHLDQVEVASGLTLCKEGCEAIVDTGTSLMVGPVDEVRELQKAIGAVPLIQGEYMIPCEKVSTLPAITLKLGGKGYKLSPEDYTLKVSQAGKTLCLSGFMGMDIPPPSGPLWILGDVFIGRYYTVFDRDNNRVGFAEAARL

Plasmepsin I = Plasmepsin I (Plasmodium falciparum, UniProt P39898); test: Inhibition of Plasmodium falciparum plasmepsin 1 preincubated for 30 mins followed by DABCYL-Glu-Arg-Nle-Phe-Leu-Ser-Phe-Pro-EDANS substrate addition by FRET assay
Sequence of Plasmepsin I (P39898 whole entry): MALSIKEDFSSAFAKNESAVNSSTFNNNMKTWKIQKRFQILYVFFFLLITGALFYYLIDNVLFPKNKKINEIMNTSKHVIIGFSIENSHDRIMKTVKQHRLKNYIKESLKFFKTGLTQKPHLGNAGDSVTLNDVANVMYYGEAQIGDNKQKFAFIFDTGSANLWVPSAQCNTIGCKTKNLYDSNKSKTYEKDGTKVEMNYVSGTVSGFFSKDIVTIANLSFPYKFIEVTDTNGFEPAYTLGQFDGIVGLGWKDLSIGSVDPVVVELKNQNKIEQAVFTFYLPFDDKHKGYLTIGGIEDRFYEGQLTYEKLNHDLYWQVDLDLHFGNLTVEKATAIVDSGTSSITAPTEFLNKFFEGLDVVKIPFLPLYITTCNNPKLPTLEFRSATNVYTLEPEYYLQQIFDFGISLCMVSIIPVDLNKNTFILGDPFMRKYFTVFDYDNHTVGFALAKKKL

Plasmodium falciparum = test: Antimalarial activity against Plasmodium falciparum 3D7 after 96 hrs by SYBR Green 1 assay; format: functional, organism-based; details: 3D7, 96 h

Sequence of Plasmepsin II (P46925 whole entry): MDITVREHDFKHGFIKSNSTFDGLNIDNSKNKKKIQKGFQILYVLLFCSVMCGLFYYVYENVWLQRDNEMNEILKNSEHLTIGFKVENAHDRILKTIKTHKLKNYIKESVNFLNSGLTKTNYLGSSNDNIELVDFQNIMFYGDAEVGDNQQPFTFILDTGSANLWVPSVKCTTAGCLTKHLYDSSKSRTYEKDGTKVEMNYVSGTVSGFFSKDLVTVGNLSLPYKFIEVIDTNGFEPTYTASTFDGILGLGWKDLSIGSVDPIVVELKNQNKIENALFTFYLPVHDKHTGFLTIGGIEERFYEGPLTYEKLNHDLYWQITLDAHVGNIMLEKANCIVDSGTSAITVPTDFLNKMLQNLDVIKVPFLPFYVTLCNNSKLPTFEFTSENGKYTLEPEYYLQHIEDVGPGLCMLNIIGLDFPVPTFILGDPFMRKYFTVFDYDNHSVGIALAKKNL

Row | Compound | IC50 (Plasmepsin II) [nM] | IC50 [1] [nM] | IC50 (Cathepsin D) [nM] | IC50 (Plasmepsin I) [nM] | EC50 (Plasmodium falciparum) [nM]
1 | Nc1nc2cc(-c3ccc(CCCCCc4ccccc4)cc3)ccc2c(=O)n1C[C@@H]1CC[C@H](c2ccccc2)O1 (racemic) | 12000 | 2000 | 52000 | 36000 | –
2 | Nc1nc2cc(-c3ccccc3)ccc2c(=O)n1C[C@@H]1CC[C@H](c2ccccc2)O1 (racemic) | 570 | 600 | 13800 | 1300 | –
3 | Nc1nc2cc(-c3ccc(CCC4CC4)cc3)ccc2c(=O)n1C[C@@H]1CC[C@H](c2ccccc2)O1 (racemic) | 400 | 300 | 3200 | 480 | –
4 | CC(C)[C@H]1CC[C@@H](Cn2c(N)nc3cc(-c4ccccc4)ccc3c2=O)O1 (racemic) | 1600 | 1500 | 25000 | 2300 | –
5 | Nc1nc2cc(-c3ccccc3)ccc2c(=O)n1CC1CC(c2ccccc2)CO1 (mixture of isomers) | 12500 | 20000 | > 200000 | 52000 | –
6 | Nc1nc2cc(-c3ccc(C4CCCCC4)cc3)ccc2c(=O)n1C[C@@H]1CC[C@H](c2ccccc2)O1 (racemic) | 2400 | 800 | 8600 | 500 | –
7 | Nc1nc2cc(-c3ccc(CCc4ccccc4)cc3)ccc2c(=O)n1C[C@@H]1CC[C@H](c2ccccc2)O1 (racemic) | 2000 | 700 | 220000 | 2000 | –
8 | Nc1nc2cc(-c3ccccc3)ccc2c(=O)n1C[C@@H]1CC[C@H](c2ccccc2)O1 | 3000 | 2700 | 22000 | 4600 | –
9 | Nc1nc2cc(-c3ccccc3)ccc2c(=O)n1C[C@H]1CC[C@@H](c2ccccc2)O1 | 340 | 500 | 4600 | 1200 | –
10 | Nc1nc2cc(-c3ccccc3)ccc2c(=O)n1C[C@@H]1CC[C@@H](c2ccccc2)O1 (racemic) | 2900 | 1100 | 9000 | 2400 | –
11 | Nc1nc2cc(-c3ccccc3)ccc2c(=O)n1C[C@@H]1CCCO1 (racemic) | 2300 | 1300 | 53400 | 6000 | –
12 | CCCCc1cccc(-c2ccc3c(=O)n(C[C@@H]4CC[C@H](c5ccccc5)O4)c(N)nc3c2)c1 (racemic) | 2000 | 1000 | 3000 | 800 | –
13 | Nc1nc2cc(-c3ccc(CCCc4ccccc4)cc3)ccc2c(=O)n1C[C@@H]1CC[C@H](c2ccccc2)O1 (racemic) | 10000 | 130 | 6000 | 3200 | 1200
14 | Nc1nc2cc(-c3ccccc3)ccc2c(=O)n1CC1CCC2(CCCCC2)O1 (racemic) | 5300 | 3000 | 9000 | 2000 | –
15 | Nc1nc2cc(-c3ccc(CCC4CCCCC4)cc3)ccc2c(=O)n1C[C@@H]1CC[C@H](c2ccccc2)O1 (racemic) | 10700 | 1200 | 100000 | 9400 | –
16 | Nc1nc2cc(-c3ccccc3)ccc2c(=O)n1C[C@@H]1CC[C@H](c2ccc3ccccc3c2)O1 (racemic) | 2500 | 1300 | 19500 | 3700 | –
17 | CCCCc1ccc(-c2ccc3c(=O)n(C[C@@H]4CC[C@H](c5ccccc5)O4)c(N)nc3c2)cc1 (racemic) | 230 | 200 | 2200 | 300 | 900
18 | CCCCCc1ccc(-c2ccc3c(=O)n(C[C@@H]4CC[C@H](c5ccccc5)O4)c(N)nc3c2)cc1 (racemic) | 150 | 100 | 5000 | 300 | 1100
19 | CC(C)CCc1ccc(-c2ccc3c(=O)n(C[C@@H]4CC[C@H](c5ccccc5)O4)c(N)nc3c2)cc1 (racemic) | 600 | 400 | > 100000 | 1400 | –
20 | COC(=O)CCc1ccc(-c2ccc3c(=O)n(C[C@@H]4CC[C@H](c5ccccc5)O4)c(N)nc3c2)cc1 (racemic) | 2600 | 400 | 1400 | 270 | –
21 | Nc1nc2cc(-c3ccc(CCCCc4ccccc4)cc3)ccc2c(=O)n1C[C@@H]1CC[C@H](c2ccccc2)O1 (racemic) | 32000 | 400 | 91000 | 6500 | 3900

Reference: ChEMBL document CHEMBL3763050, “Fragment-Based Discovery of 2-Aminoquinazolin-4(3H)-ones As Novel Class Nonpeptidomimetic Inhibitors of the Plasmepsins I, II, and IV” (J Med Chem, 2016)
